Experimental data reported in PubChem BioAssay AID256 (DTP/NCI, 2004).
Toxic doses and inconclusive results are not listed.

Tested on: CD2F1 mice, L1210 leukemia ip, survival T/C
Assay: NCI In Vivo Anticancer Drug Screen. Data for tumor model L1210 Leukemia (intraperitoneal) in CD2F1 (CDF1) mice
Conditions: endpoint: mean survival time, higher = longer survival
Summary of the method: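 Each value reflects a quotient of treated over vehicle control outcomes in mice with a transplanted tumor.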

[1] = dose: 100.0 mg/kg/injection, schedule: Q04DX003 (ip), vehicle: saline with Tween-80
[2] = dose: 200.0 mg/kg/injection, schedule: Q04DX003 (ip), vehicle: saline with Tween-80
[3] = dose: 400.0 mg/kg/injection, schedule: Q04DX003 (ip), vehicle: saline with Tween-80
[4] = dose: 100.0 mg/kg/injection, schedule: Q01DX001 (ip), vehicle: saline with Tween-80
[5] = dose: 200.0 mg/kg/injection, schedule: Q01DX001 (ip), vehicle: saline with Tween-80
[6] = dose: 75.0 mg/kg/injection, schedule: Q01DX001 (ip), vehicle: saline
[7] = dose: 400.0 mg/kg/injection, schedule: Q01DX001 (ip), vehicle: saline with Tween-80
[8] = dose: 100.0 mg/kg/injection, schedule: Q01DX009 (ip), vehicle: saline with Tween-80
[9] = dose: 100.0 mg/kg/injection, schedule: Q04DX003 (ip), vehicle: saline
[10] = dose: 200.0 mg/kg/injection, schedule: Q04DX003 (ip), vehicle: saline
[11] = dose: 400.0 mg/kg/injection, schedule: Q04DX003 (ip), vehicle: saline

Question: Which T/C [1] does the source give for `CCC1(CCC#N)CCC(N)=CC1=O` (centres undefined) here?
Answer: The T/C was 104 % of control.

Question: And the T/C [2]?
Answer: The T/C was 95 % of control.

Question: What about the T/C [3] of the same molecule?
Answer: The T/C was 101 % of control.

Question: Which T/C [4] does the source give for `CCOC(=O)C[Se]CC(=O)OCC` here?
Answer: Its T/C is 100 % of control.

Question: And the T/C [5]?
Answer: Its T/C is 103 % of control.

Question: With `CN(CCO)N=Nc1ccccc1` as the molecule, how does the T/C [6] read?
Answer: The T/C was 102 % of control.

Question: And the T/C (dose: 150.0 mg/kg/injection, schedule: Q01DX001 (ip), vehicle: saline)?
Answer: Its T/C is 105 % of control.

Question: Which results are given for `S=C(CSc1ccccc1)Nc1cccc2ccccc12`?
Answer: T/C [1]: 101 % of control; T/C [2]: 91 % of control; T/C [3]: 93 % of control

Question: `COCC1OC(OC)C(OC(=O)c2ccccc2)C(OC(=O)c2ccccc2)C1OC` (centres undefined) was tested. Which T/C [4] did it give?
Answer: Its T/C is 90 % of control.

Question: What about the T/C [5] of the same molecule?
Answer: Its T/C is 91 % of control.

Question: And the T/C [7]?
Answer: Its T/C is 90 % of control.

Question: `CC(C)NS(=O)(=O)c1ccccc1` was tested. Which T/C [1] did it give?
Answer: Its T/C is 97 % of control.

Question: What about the T/C [2] of the same molecule?
Answer: Its T/C is 96 % of control.

Question: And the T/C [3]?
Answer: Its T/C is 99 % of control.

Question: With `COc1ccc2c3csc4ccccc4c-3nc2c1` as the molecule, how does the T/C [1] read?
Answer: The T/C was 91 % of control.

Question: For `O=S1CCCCO1` (centres undefined), which T/C (dose: 75.0 mg/kg/injection, schedule: Q04DX003 (ip), vehicle: saline) is on record?
Answer: Its T/C is 95 % of control.

Question: And the T/C (dose: 150.0 mg/kg/injection, schedule: Q04DX003 (ip), vehicle: saline)?
Answer: Its T/C is 101 % of control.

Question: How did the T/C [1] turn out when `CCOC(OCC)c1ccccc1` (tested in a mixture with another compound) was run?
Answer: The T/C was 97 % of control.

Question: And the T/C [2]?
Answer: Its T/C is 97 % of control.

Question: What about the T/C [3] of the same molecule?
Answer: The T/C was 97 % of control.

Question: `O=C/C=C/c1ccc([N+](=O)[O-])cc1` was tested. Which T/C (dose: 100.0 mg/kg/injection, schedule: Q04DX003 (ip), vehicle: Klucel (hydroxypropylcellulose) (HPC)) did it give?
Answer: Its T/C is 90 % of control.

Question: And the T/C (dose: 200.0 mg/kg/injection, schedule: Q04DX003 (ip), vehicle: Klucel (hydroxypropylcellulose) (HPC))?
Answer: Its T/C is 90 % of control.

Question: What does the source list for `CC(=O)CCC(C)=O`?
Answer: T/C [8]: 100 % of control; T/C [9]: 97 % of control; T/C (dose: 200.0 mg/kg/injection, schedule: Q01DX009 (ip), vehicle: saline with Tween-80): 109 % of control; T/C [10]: 100 % of control; T/C (dose: 400.0 mg/kg/injection, schedule: Q01DX009 (ip), vehicle: saline with Tween-80): 100 % of control; T/C [11]: 94 % of control

Question: With `NC(=O)NNc1ccc([N+](=O)[O-])cc1[N+](=O)[O-]` as the molecule, how does the T/C (dose: 25.0 mg/kg/injection, schedule: Q04DX003 (ip), vehicle: saline with Tween-80) read?
Answer: The T/C was 93 % of control.

Question: What about the T/C (dose: 50.0 mg/kg/injection, schedule: Q04DX003 (ip), vehicle: saline with Tween-80) of the same molecule?
Answer: Its T/C is 89 % of control.

Question: And the T/C [1]?
Answer: The T/C was 97 % of control.

Question: With `CC(=O)OC1CC2CC(C1C)C2(C)C` (centres undefined) as the molecule, how does the T/C [8] read?
Answer: The T/C was 91 % of control.

Question: And the T/C [1]?
Answer: The T/C was 90 % of control.

Question: What about the T/C [2] of the same molecule?
Answer: The T/C was 88 % of control.

Question: And the T/C [3]?
Answer: Its T/C is 88 % of control.

Question: For `ClC12CCC(CC1)C2`, which T/C [9] is on record?
Answer: The T/C was 100 % of control.

Question: And the T/C [10]?
Answer: Its T/C is 94 % of control.

Question: What about the T/C [11] of the same molecule?
Answer: Its T/C is 100 % of control.

Question: How did the T/C (dose: 2.5 mg/kg/injection, schedule: Q04DX003 (ip), vehicle: water) turn out when `CC[NH-].CC[NH-].[Cl][Pt+2][Cl]` was run?
Answer: Its T/C is 115 % of control.

Question: And the T/C (dose: 5.0 mg/kg/injection, schedule: Q04DX003 (ip), vehicle: water)?
Answer: The T/C was 116 % of control.

Question: What about the T/C (dose: 10.0 mg/kg/injection, schedule: Q04DX003 (ip), vehicle: water) of the same molecule?
Answer: The T/C was 112 % of control.

Question: Which T/C [1] does the source give for `CC(Br)C(=O)NCC(=O)O` (centres undefined) here?
Answer: The T/C was 92 % of control.

Question: What about the T/C [2] of the same molecule?
Answer: The T/C was 91 % of control.

Question: What about the T/C [3] of the same molecule?
Answer: The T/C was 95 % of control.

Question: With `CS(=O)(=O)Cc1cnc(N)nc1-c1ccccc1` as the molecule, how does the T/C [4] read?
Answer: Its T/C is 94 % of control.

Question: What about the T/C [5] of the same molecule?
Answer: The T/C was 97 % of control.

Question: And the T/C [7]?
Answer: Its T/C is 94 % of control.

Question: What does the source list for `C/C(Cl)=C\CSc1ccccc1`?
Answer: T/C (dose: 100.0 mg/kg/injection, schedule: Q01DX001 (ip), vehicle: saline): 100 % of control; T/C (dose: 200.0 mg/kg/injection, schedule: Q01DX001 (ip), vehicle: saline): 100 % of control; T/C (dose: 400.0 mg/kg/injection, schedule: Q01DX001 (ip), vehicle: saline): 101 % of control

Question: For `CC1CN=C(c2ccc(NC(=O)c3ccc(C(=O)Nc4ccc(C5=NCC(C)N5)cc4)cc3)cc2)N1` (centres undefined), which T/C (dose: 12.5 mg/kg/injection, schedule: Q01DX009 (ip), vehicle: Klucel (hydroxypropylcellulose) (HPC)) is on record?
Answer: The T/C was 212 % of control.

Question: And the T/C (dose: 25.0 mg/kg/injection, schedule: Q01DX009 (ip), vehicle: Klucel (hydroxypropylcellulose) (HPC))?
Answer: The T/C was 269 % of control.

Question: What about the T/C (dose: 50.0 mg/kg/injection, schedule: Q01DX009 (ip), vehicle: Klucel (hydroxypropylcellulose) (HPC)) of the same molecule?
Answer: Its T/C is 290 % of control.

Question: And the T/C (dose: 100.0 mg/kg/injection, schedule: Q01DX009 (ip), vehicle: Klucel (hydroxypropylcellulose) (HPC))?
Answer: Its T/C is 305 % of control.

Question: What about the T/C (dose: 200.0 mg/kg/injection, schedule: Q01DX009 (ip), vehicle: Klucel (hydroxypropylcellulose) (HPC)) of the same molecule?
Answer: Its T/C is 333 % of control.

Question: And the T/C (dose: 400.0 mg/kg/injection, schedule: Q01DX009 (ip), vehicle: Klucel (hydroxypropylcellulose) (HPC))?
Answer: Its T/C is 288 % of control.

Question: How did the T/C [6] turn out when `CCOc1cc(NCCCN)c2nc(OCc3ccccc3)ccc2c1` was run?
Answer: Its T/C is 96 % of control.
